Structures can show the parent of a compound that is named as a salt.
Assays:
MMP-13 catalytic domain = molecular target: T1, MMP-13 catalytic domain (Homo sapiens, UniProt P45452); assay: MMP-13 catalytic domain inhibition (thiopeptolide substrate hydrolysis); assay type: biochemical; details: read-out: MMP-13CD IC50
T1 construct: use the catalytic domain of the MMP-13 enzyme, namely matrix metalloproteinase-13 catalytic domain (“MMP-13CD”)
Excerpt: The assays measure the amount by which a test compound reduces the hydrolysis of a thiopeptolide substrate catalyzed by a matrix metalloproteinase enzyme. […] One such assay is described below in Biological Method 1.
Some of the particular methods described below use the catalytic domain of the MMP-13 enzyme, namely matrix metalloproteinase-13 catalytic domain (“MMP-13CD”), rather than the corresponding full-length enzyme, MMP-13.
Thiopeptolide substrates show virtually no decomposition or hydrolysis at or below neutral pH in the absence of a matrix metalloproteinase enzyme. A typical thiopeptolide substrate commonly utilized for assays is Ac-Pro-Leu-Gly-thioester-Leu-Leu-Gly-OEt. […] Assays are carried out with and without matrix metalloproteinase inhibitor compounds, and the amount of hydrolysis is compared for a determination of inhibitory activity of the test compounds.

Compound | melting point | IC50 (MMP-13 catalytic domain) [nM]
COc1cc(CNC(=O)c2cccc(-c3nnn(Cc4ccc(C(=O)O)cc4)n3)c2)ccn1 (as salt: TFA) [Example 33, 4-(5-{3-[(2-Methoxy-pyridin-4-ylmethyl)-carbamoyl]-phenyl}-tetrazol-2-ylmethyl)-benzoic acid] | 228 °C (dec.) | 
COC(=O)c1ccc(CNC(=O)c2cccc(-c3nnn(Cc4cccc(OC)c4)n3)c2)cc1 [Example 3, 4-({3-[2-(3-Methoxy-benzyl)-2H-tetrazol-5-yl]-benzoylamino}-methyl)-benzoic acid methyl ester] | 153 to 154 °C | 
O=C(O)c1ccc(Cn2nnc(-c3cccc(-c4nnc(Cc5ccccc5)o4)c3)n2)cc1 [Example A1, 4-{5-[3-(5-Benzyl-[1,3,4]oxadiazol-2-yl)-phenyl]-tetrazol-2-ylmethyl}-benzoic acid] |  | 440
O=C(O)c1ccc(Cn2nnc(-c3cccc(-c4nnc(-c5ccccc5)o4)c3)n2)cc1 [Example A2, 4-{5-[3-(5-Phenyl-[1,3,4]oxadiazol-2-yl)-phenyl]-tetrazol-2-ylmethyl}-benzoic acid] |  | > 3000
CC(C)(C)OC(=O)c1ccc(Cn2nnc(-c3cccc(-c4ncc(-c5ccccc5)o4)c3)n2)cc1 [Example A3, 4-{5-[3-(5-Phenyl-oxazol-2-yl)-phenyl]-tetrazol-2-ylmethyl}-benzoic acid tertiary butyl ester] |  | 1400
O=C(O)c1ccc(Cn2nnc(-c3cccc(-c4ncc(-c5ccccc5)o4)c3)n2)cc1 [Example A4, 4-{5-[3-(5-Phenyl-oxazol-2-yl)-phenyl]-tetrazol-2-ylmethyl}-benzoic acid] |  | 400
Fc1ccc(Cn2nnc(-c3cccc(-c4ncc(-c5ccccc5)o4)c3)n2)cc1F [Example A5, 2-(3,4-Difluoro-benzyl)-5-[3-(5-phenyl-oxazol-2-yl)-phenyl]-2H-tetrazole] |  | 1800
COc1ccc(-c2cnc(-c3cccc(-c4nnn(Cc5ccc(C(=O)OC(C)(C)C)cc5)n4)c3)o2)cc1 [Example A6, 4-(5-{3-[5-(4-Methoxy-phenyl)-oxazol-2-yl]-phenyl}-tetrazol-2-ylmethyl)-benzoic acid tertiary butyl ester] |  | 1000
COc1ccc(-c2cnc(-c3cccc(-c4nnn(Cc5ccc(C(=O)O)cc5)n4)c3)o2)cc1 [Example A7, 4-(5-{3-[5-(4-Methoxy-phenyl)-oxazol-2-yl]-phenyl}-tetrazol-2-ylmethyl)-benzoic acid] |  | 18
COc1ccc(-c2cnc(-c3cccc(-c4nnn(Cc5ccc(F)c(F)c5)n4)c3)o2)cc1 [Example A8, 2-(3,4-Difluoro-benzyl)-5-{3-[5-(4-methoxy-phenyl)-oxazol-2-yl]-phenyl}-2H-tetrazole] |  | 1300
COc1ccc(-c2cnc(-c3cccc(-c4nnn(Cc5ccc(C(=O)O)cc5)n4)c3)s2)cc1 [Example A9, 4-(5-{3-[5-(4-Methoxy-phenyl)-thiazol-2-yl]-phenyl}-tetrazol-2-ylmethyl)-benzoic acid] |  | 3.6
COc1ccc(-c2cnc(-c3cccc(-c4nnc(-c5ccc(C(=O)O)cc5)o4)c3)o2)cc1 [Example B1, 4-(5-{3-[5-(4-Methoxy-phenyl)-oxazol-2-yl]-phenyl}-[1,3,4]oxadiazol-2-yl)-benzoic acid] |  | 49000
COc1ccc(-c2cnc(-c3cccc(-c4nnc(Cc5ccc(C(=O)O)cc5)o4)c3)o2)cc1 [Example B2, 4-(5-{3-[5-(4-Methoxy-phenyl)-oxazol-2-yl]-phenyl}-[1,3,4]oxadiazol-2-ylmethyl)-benzoic acid] |  | 200
COc1ccc(-c2cnc(-c3cccc(-c4nnc(Cc5ccc(C(=O)O)cc5)s4)c3)o2)cc1 [Example B3, 4-(5-{3-[5-(4-Methoxy-phenyl)-oxazol-2-yl]-phenyl}-[1,3,4]thiadiazol-2-ylmethyl)-benzoic acid] |  | 14
O=C(O)c1ccc(-c2nnc(-c3cccc(C#CCc4ccccc4)c3)o2)cc1 [Example C1, 4-{5-[3-(3-Phenyl-prop-1-ynyl)-phenyl]-[1,3,4]oxadiazol-2-yl}-benzoic acid] |  | 3400
NCc1ccc(Cn2nnc(-c3cccc(C#CCc4ccccc4)c3)n2)cc1 [Example D6, 4-{5-[3-(3-Phenyl-prop-1-ynyl)-phenyl]-tetrazol-2-ylmethyl}-benzylamine] |  | 2800
CCCC(=O)NCc1ccc(Cn2nnc(-c3cccc(C#CCc4ccccc4)c3)n2)cc1 [Example D7, N-(4-{5-[3-(3-Phenyl-prop-1-ynyl)-phenyl]-tetrazol-2-ylmethyl}-benzyl)-butyramide] |  | 1300
CC(=O)NCc1ccc(Cn2nnc(-c3cccc(C#CCc4ccccc4)c3)n2)cc1 [Example D8, N-(4-{5-[3-(3-Phenyl-prop-1-ynyl)-phenyl]-tetrazol-2-ylmethyl}-benzyl)-acetamide] |  | 330
O=C(O)c1ccc(Cn2nnc(-c3cccc(C(=O)NCc4ccncc4)c3)n2)cc1 [Example F1, 4-(5-{3-[(Pyridin-4-ylmethyl)-carbamoyl]-phenyl}-tetrazol-2-ylmethyl)-benzoic acid; compound with trifluoro-acetic acid] |  | 99
O=C(O)c1ccc(Cn2nnc(-c3cccc(C(=O)NCc4cccnc4)c3)n2)cc1 [Example F2, 4-(5-{3-[(Pyridin-3-ylmethyl)-carbamoyl]-phenyl}-tetrazol-2-ylmethyl)-benzoic acid; compound with trifluoro-acetic acid] |  | 280
O=C(O)c1ccc(Cn2nnc(-c3cccc(C#CCOc4ccc(F)cc4)c3)n2)cc1 [Example G4, 4-(5-{3-[3-(4-Fluoro-phenoxy)-prop-1-ynyl]-phenyl}-tetrazol-2-ylmethyl)-benzoic acid] |  | 86
O=C(O)c1ccc(Cn2nnc(-c3cccc(C#CCn4ccnc4)c3)n2)cc1 [Example G5, 4-{5-[3-(3-Imidazol-1-yl-prop-1-ynyl)-phenyl]-tetrazol-2-ylmethyl}-benzoic acid] |  | 6.8
O=C(O)c1ccc(Cn2nnc(-c3cccc(C#CCn4ccc(=O)cc4)c3)n2)cc1 [Example G6, 4-(5-{3-[3-(4-Oxo-4H-pyridin-1-yl)-prop-1-ynyl]-phenyl}-tetrazol-2-ylmethyl)-benzoic acid] |  | 6.4
O=C(O)c1ccc(Cn2nnc(-c3cccc(C#CCn4cnc(-c5ccccc5)c4)c3)n2)cc1 [Example G7, 4-(5-{3-[3-(4-Phenyl-imidazol-1-yl)-prop-1-ynyl]-phenyl}-tetrazol-2-ylmethyl)-benzoic acid] |  | 29
CC(C#Cc1cccc(-c2nnn(Cc3ccc(C(=O)O)cc3)n2)c1)c1ccccc1 (stereo not shown) [Example G8, 4-{5-[3-(3-Phenyl-but-1-ynyl)-phenyl]-tetrazol-2-ylmethyl}-benzoic acid] |  | 1800
O=C(O)c1ccc(Cn2nnc(-c3cncc(C#CCc4ccc(F)cc4)c3)n2)cc1 [Example H2, 4-(5-{5-[3-(4-Fluoro-phenyl)-prop-1-ynyl]-pyridin-3-yl}-tetrazol-2-ylmethyl)-benzoic acid] |  | 8.3
O=C(O)c1ccc(Cn2nnc(-c3cncc(C#CCn4ccnc4)c3)n2)cc1 [Example H3, 4-{5-[5-(3-Imidazol-1-yl-prop-1-ynyl)-pyridin-3-yl]-tetrazol-2-ylmethyl}-benzoic acid] |  | 160
[4-(5-{3-[3-(4-Fluoro-phenyl)-prop-1-ynyl]-phenyl}-tetrazol-2-ylmethyl)-phenyl]-phosphonic acid [Example D2] |  | 13

Source: patent US20090029995A1, “HETERO BIARYL DERIVATIVES AS MATRIX METALLOPROTEINASE INHIBITORS” (WARNER-LAMBERT COMPANY, priority 2002, published 2009)
